Measured values published in patent US9248163B2, “Insulin-like growth factor binding protein 7 for treatment of cancer” (University of Massachusetts, priority 2007, dated 2016).

Legend:
SK-MEL-28 cells = test: Immunoblot analysis of SMARCB1, BNIP3L and activated caspase 3; assay type: cell-based, human; settings: 10 μg/ml
Experimental: To prepare cell extracts, cells were lysed in Laemmli buffer; for phospho-proteins, cells were lysed in the presence of a phosphatase inhibitor cocktail (Sigma). To prepare conditioned media, cells were grown in Opti-MEM™ (Invitrogen) for 24 hours, and media was harvested and concentrated using Centricon™ plus 20 tubes (Millipore). Conditioned media was normalized to cell number prior to loading the gel. For the experiments shown in FIGS. 3D and 4C, rIGFBP7 was added to the culture medium at a concentration of 10 μg/ml. For the MEK/RAF inhibitor experiment of FIG. 4D, SK-MEL-28 cells were treated with 2 μg/ml or 10 μg/ml rIGFBP7, 20 μM or 40 μM of the MEK inhibitor PD98054 (Calbiochem), or 5 nM or 10 nM the RAF inhibitor GW5074 (Sigma) for 24 hours prior to harvesting cells. Proteins were resolved by SDS-PAGE and transferred to nitrocellulose. Blots were probed with the following antibodies: α-p16 (Abcam), α-acetylated H3K9 (Upstate), α-IGFBP7 (Santa Cruz), α-SMARCB1 (Abnova), α-BNIP3L (Proscience), α-BRAFV600E (Santa Cruz), α-cleaved caspase-3 p11 (Santa Cruz), α-β-actin (Sigma), α-phospho-ERK (Cell Signaling) or α-ERK (Cell Signaling).

[1] = system: NCI 60 panel of human cancer cell lines; test: Apoptosis (Annexin V-PE) in the NCI 60 panel of human cancer cell lines; assay type: cell-based
Experimental: The ability of IGFBP7 to induce apoptosis was assessed in the NCI 60 panel of human cancer cell lines, which were obtained from the National Cancer Institute (NCI). The panel includes cell lines corresponding to breast (MDA-MB-231, HS 578T, BT-549, T47-D, MCF7), ovarian (NCI-ADR-RES, OVCAR-3, OVCAR-5, OVCAR-8, OVCAR-4, SK-OV-3, IGROV1), prostate (DU-145, PC-3), renal (TK-10, CAKI-1, A496, ACHN, RXF-393, 786-O, SN12C, UO-31), non-small cell lung (NCI-H460, HOP-62, A549-ATCC, NCI-H226, EKVX, NCI-H322M, HOP-92, NCI-H522), central nervous system (CNS) (SF-295, SF-268, SF-539, SNB-19, SNB-75, U251), colon (HCT-15, SW-620, COLO205, HT29, HCC-2998, HCT-116, SM-12), melanoma (SK-MEL-28, SK-M2L-2, LOX IMV1, M14, MALM-3M, SK-MEL-5, UACC-257, UACC-62, MDA-MB-435), and hematopoietic (CCRF-CEM, K-562, MOLT-4, SR, RPMI-8226) cancers. These cell lines have been extensively characterized and their mutational status for a number of human cancer genes, including BRAF and RAS (e.g., NRAS, KRAS, or HRAS), is known (see the World Wide Web at discover.nci.nih.gov/cellminer/mutationGeneLoad.do).
rIGFBP7 was expressed and purified as described above. To monitor apoptosis following rIGFBP7 treatment, 5×10^5 cells were treated with rIGFBP7 (10 μg/ml) for 24 hours and stained for Annexin V-PE. The results are shown in FIG. 11A. rIGFBP7 induced apoptosis in 11/11 (100%) of the cell lines that contained a BRAF mutation and 8/13 (61.5%) of the cell lines that contained a RAS mutation. One cell line contained both a BRAF and a RAS mutation, and this cell line was susceptible to rIGFBP7-mediated apoptosis.

[2] = system: SK-MEL-31 (wild type BRAF) tumors; test: Tumor formation assay, SK-MEL-31 xenograft in nude mice; assay type: in vivo, athymic Balb/c (nu/nu) mice
Experimental: (§1) 5×10^6 SK-MEL-28 or SK-MEL-31 cells were suspended in 100 μl of serum-free DMEM and injected subcutaneously into the right flank of athymic Balb/c (nu/nu) mice (Taconic). Three, six, and nine days later, the mice were injected at the tumor site with either 20 μg of rIGBP7 in a total volume of 100 μl or, as a control, PBS. Tumor dimensions were measured every three days and tumor volume was calculated using the formula π/6×(length)×(width)^2. For the systemic administration experiments, 5×10^6 SK-MEL-28 or SK-MEL-31 cells were injected into the flanks of nude mice and when tumors reached a size of 100 mm3, 100 μg rIGFBP7 in a total volume of 100 μl was delivered by tail vein injection at days 6, 9, and 12. Tumor dimensions were measured every three days. Animal experiments were performed in accordance with the Institutional Animal Care and Use Committee (IACUC) guidelines.

[3] = system: A375(Fluc-IRES-GFP) cells; test: Pulmonary metastasis model, A375(Fluc-IRES-GFP) cells by tail vein injection
Excerpt: For these experiments, A375(Fluc-IRES-GFP) cells were used, which are a highly metastatic, BRAF-positive human melanoma cell line stably expressing an Fluc-IRES-GFP reporter construct (where Fluc is the firefly luciferase gene, IRES is an internal ribosomal entry site and GFP is green fluorescent protein) (Collisson et al., 2003, Cancer Res., 63:5669-5673). The presence of Fluc-IRES-GFP enables tumor growth to be quantified over time in live animals by serial bioluminescent optical imaging.
Two treatment regimens were tested. In one set of experiments, administration of IGFBP7 was initiated 3 days after injection of A375-Fluc cells, at which time metastatic disease would be significant (FIG. 12A). In these experiments, 7×10^5 A375(Fluc-IRES-GFP) cells were injected into the tail vein of 10 athymic Balb/c (nu/nu) mice (Taconic). At days 3, 6 and 9, mice were injected via the tail vein with either 100 μg purified, recombinant IGFBP7 (n=5 mice) or, as a control, phosphate buffered saline (PBS) (n=5 mice). On day 6, mice were analyzed for quantitation of metastatic tumor burden by using a Xenogen brand bioluminescent imaging system. […] Mice were monitored daily for viability over 30 days, and the ability of systemically administered IGFBP7 to suppress metastatic disease was assessed by survival assays (Kaplan-Meier analysis).
In a second set of experiments, administration of IGFBP7 was initiated both before and shortly after injection of A375(Fluc-IRES-GFP) cells, to test the ability of IGFBP7 to function prophylactically to prevent metastasis and/or treat early metastatic disease (FIG. 13A). In these experiments, 100 μg purified, recombinant IGFBP7 (or, as a control, PBS) was injected into the tail vein of mice (n=5 mice for each group). One day later, mice were injected with 7×10^5 A375(Fluc-IRES-GFP) cells, followed by injection of 100 μg on days 3 and 6. Mice were monitored daily for viability over 30 days, and the ability of systemically administered IGFBP7 to suppress metastatic disease was assessed by survival assays (Kaplan-Meier analysis).

[4] = system: human melanoma cell lines; test: Apoptosis assay (Annexin V-PE) in melanoma cells; assay type: cell-based
Experimental: PFF fibroblasts or melanocytes or shRNA knockdown derivatives (5×10^5 cells) were infected with BRAFV600E-expressing retrovirus, and 4 days later the total cell population was stained for Annexin V-PE (BD Biosciences). To monitor apoptosis in melanoma cells following rIGFBP7 treatment, 5×10^5 cells were treated with rIGFBP7 (10 μg/ml) for 24 hours and stained for Annexin V-PE.
Finally, it was determined whether apoptosis was dependent upon the continual presence of rIGFBP7 or was irreversible following transient exposure to rIGFBP7. SK-MEL-28 cells were incubated with rIGFBP7 for various lengths of time, following which the cells were washed and cultured in medium lacking rIGFBP7, and apoptosis was quantitated after 24 hours. The results, shown in FIG. 3H, indicate that following 6 hours of incubation with rIGFBP7, the cells were irreversibly committed to apoptosis, which occurred even following removal of rIGFBP7.

[5] = system: SK-MEL-28 (BRAFV600E-positive) tumors; test: Tumor formation assay, SK-MEL-28 xenograft in nude mice; assay type: in vivo, athymic Balb/c (nu/nu) mice
Experimental: as §1

[6] = injected at the tumor site, 20 μg, days 3, 6 and 9
[7] = systemic, 100 μg by tail vein injection at days 6, 9 and 12

rIGFBP7: purified recombinant human IGFBP7, C-terminal Flag-tagged, from baculovirus-infected Sf9 insect cells
apoptosis by caspase 3 activation (SK-MEL-28 cells): apoptosis occurred as evidenced by caspase 3 activation | expression of SMARCB1 and BNIP3L (SK-MEL-28 cells): significantly increased | cell lines in which apoptosis was induced ([1]; cell lines that contained a BRAF mutation (11/11), 10 μg/ml, 24 hours): 100% | cell lines in which apoptosis was induced ([1]; cell lines that contained a RAS mutation (8/13), 10 μg/ml, 24 hours): 61.5% | cell lines susceptible to apoptosis ([1]; cell lines without a BRAF or RAS mutation (4/34), 10 μg/ml, 24 hours): 11.8% | susceptibility to rIGFBP7-mediated apoptosis ([1]; one cell line with both a BRAF and a RAS mutation): susceptible | tumor growth [2, 6]: no effect | tumor growth [2, 7]: unaffected | survival (Kaplan-Meier) ([3]; 100 μg one day before cell injection and on days 3 and 6, PBS mice died within 18 days): still viable at day 30 | survival (Kaplan-Meier) ([3]; 100 μg tail vein at days 3, 6 and 9 after cell injection, control mice died at 20 days): still viable at day 30 | lung metastasis by bioluminescent imaging ([3]; 100 μg tail vein from day 3, imaged on day 6): no evidence of lung metastasis | incubation time after which cells were irreversibly committed to apoptosis ([4]; SK-MEL-28 cells, washed, apoptosis quantitated after 24 hours): 6 h | surviving senescent cells ([4]; melanoma cell lines with activating BRAF mutation): undetectable | apoptosis ([4]; melanoma cell lines with activating BRAF mutation, 10 μg/ml, 24 hours): strongly induced apoptosis | tumor growth [5, 6]: substantially suppressed growth | TUNEL labeling of tumors ([5]; mice treated with rIGFBP7): positive | tumor growth [5, 7]: completely suppressed growth | suppression of tumor growth, dose dependence ([5]; systemic, 2, 20, 50, 100 or 250 μg, tumor volume at day 21): dose-dependent | adverse effects ([5]; systemic, concentrations higher than required for inhibition of tumor growth): without apparent adverse effects
